Measurements reported in patent publication US20260137698A1, “CYCLIN-DEPENDENT KINASE 7 INHIBITORS” (JOINT STOCK COMPANY «BIOCAD», priority 2022, published 2026).
Read-outs that look alike come from different tables or passages of the source.

What was measured:
[1] = target: CDK13/Cyclin K (Homo sapiens, UniProt Q14004); test: Inhibition of CDK13/Cyclin K kinase activity (ADP-Glo); type: biochemical
Method: Measurements were carried out in a 5 μl reaction volume using a 384-well plate (Corning Inc., order no. 4513). The analyzed substances were titrated from 50 μM in increments of 4 at 11 concentration points in a normal strength kinase buffer A (Thermo Fisher Scientific Inc, cat. no. PV3189) supplemented with DTT (Sigma, orde. no. 646563-10X.5ML) and prepared with water (Panreac, order no. 701074). Kinase was diluted in an analogous buffer, mixed with test compounds in plate wells and preincubated for 10 minutes at 25° C. Following incubation, a mixture of reaction substrate (CDKtide (SignalChem, order no. C06-58) or Histone H1 (SignalChem, order no. H10-54N) or PDKtide (SignalChem, order no. P10-58) and ATP (SignalChem, order no. V915B) prepared on a normal strength kinase buffer A was added. 1% solution of dimethyl sulfoxide (DMSO) (Sigma-Aldrich, order no. D2438) in the reaction volume was used as a negative control. The final concentrations of all reaction components are shown in Table 5. The plate was centrifuged at 400 rcf (Eppendorf, 5804 R) for 1 minute and incubated for 40-60 minutes at 25° C. The amount of ATP consumed in the kinase reaction was then measured using the ADP-Glo™ detection system. Luminescence signal was measured using Spark 20M tablet multifunction reader (Tecan Group Ltd, Switzerland). IC50 value was calculated using Magellan 7.2 (Tecan Group Ltd, Switzerland) by approximating experimental points by four-parameter model with the optimization by Levenberg-Marquardt:
[formula] • where A is the upper asymptote; D is the lower asymptote; C is IC50, half-maximal inhibitory concentration of kinase, nM; B is the curvature (slope).

[2] = Passive membrane permeability through PAMPA artificial membrane, pH 7.4; type: in vitro ADME; conditions: pH 7.4, 10 μmol, 20 hours at room temperature, mean of multiple measurements, read-out: PAMPA passive permeability Pe
How it was run: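 Compound at 10 μmol in 0.01 M phosphate buffer pH 7.4 placed in donor wells over lecithin-phospholipid-impregnated PVDF filter, buffer in acceptor; 20 h at room temperature. Donor and acceptor levels measured by RP-HPLC-UV; Pe (cm/s) and membrane retention R (%) calculated.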

[3] = Microsomal stability in human liver microsomes (HLM); type: in vitro ADME; conditions: 1 μM test compound
Method: (§1) The procedure for investigating the metabolism of selected compounds was carried out in microsomal fractions of the liver (of rats, mice, humans) in the presence of a phase I metabolism cofactor (NADPH).
(§2) The rate of enzymatic decomposition of the compound in liver microsomes in in vitro analysis was determined by keeping a reaction mixture comprising 0.5 mg/ml of pooled human, rat or mouse liver microsomes, 1 μM test compound, 1.5 mM […] (Carbosynth, UK, cat. no. NN108711101) and 1.5 mM magnesium chloride in 0.1 M sodium phosphate buffer (pH 7.4) in a solid-state thermostat at 37° C. (XenoTech, USA, order no. H2610, cat. no. R1000, cat. no. M1000). Incubation was carried out in three replicates.
(§3) To determine the stability of compounds under sample preparation conditions, an aliquot in two replicates with the test compound and a microsomal fraction devoid of the NADPH cofactor, which was incubated for 40 minutes at 37° C.
(§4) Reactions were stopped at 0, 10, 20, 30 and 40 min time points by way of adding an ice mixture of acetonitrile:methanol (3:1) comprising an internal standard.
(§5) Samples were then centrifuged to remove the precipitated protein, supernatants were analyzed using HPLC-MS/MS to determine in vitro clearance (CLint) of the compounds. The Agilent 6410 mass spectrometer (Agilent, USA) combined with the Agilent 1260 Infinity II HPLC liquid chromatograph (Agilent, USA) and a cooling autosampler controlled by MassHunter software (Agilent, USA) was used as an HPLC-MS/MS system. Chromatographic analysis was performed on a C18 reversed-phase HPLC column (Agilent, Waters or equivalent) in a gradient elution mode in a system of mobile phases: 0.1% formic acid in water/0.1% formic acid in acetonitrile, flow rate: 0.5 ml/min, column T=35° C. Mass spectrometric detection was performed with electrospray ionization in multiple reaction monitoring mode. Precursor ions, fragment ions and collision energies for each substance were selected experimentally.
(§6) A graph of dependence of the logarithmic ratio between substance's peak area and internal standard's peak area vs time was built. The dependent coefficient of this line corresponded to the elimination rate constant k, on the basis of which the in vitro clearance CLint was calculated:
(§7) Based on resulting in vitro clearance CLint values, the microsomal stability of the selected compounds for humans, rats and mice was concluded.

[4] = Microsomal stability in rat liver microsomes (RLM); type: in vitro ADME; conditions: rat liver microsomes 0.5 mg/ml, 1 μM compound, NADPH
Method: as §1, §2, §3, §4, §5, §6, §7

[5] = Microsomal stability in mouse liver microsomes (MLM); type: in vitro ADME; conditions: mouse liver microsomes 0.5 mg/ml, 1 μM compound, NADPH
Method: as §1, §2, §3, §4, §5, §6, §7

[6] = mean of multiple measurement series, ATP 10 μM, read-out: CDK13/Cyclin K IC50
[7] = mean value from several measurements, read-out: IC50 CDK13/Cyclin K

Sequence of CDK13/Cyclin K (Q14004 whole entry): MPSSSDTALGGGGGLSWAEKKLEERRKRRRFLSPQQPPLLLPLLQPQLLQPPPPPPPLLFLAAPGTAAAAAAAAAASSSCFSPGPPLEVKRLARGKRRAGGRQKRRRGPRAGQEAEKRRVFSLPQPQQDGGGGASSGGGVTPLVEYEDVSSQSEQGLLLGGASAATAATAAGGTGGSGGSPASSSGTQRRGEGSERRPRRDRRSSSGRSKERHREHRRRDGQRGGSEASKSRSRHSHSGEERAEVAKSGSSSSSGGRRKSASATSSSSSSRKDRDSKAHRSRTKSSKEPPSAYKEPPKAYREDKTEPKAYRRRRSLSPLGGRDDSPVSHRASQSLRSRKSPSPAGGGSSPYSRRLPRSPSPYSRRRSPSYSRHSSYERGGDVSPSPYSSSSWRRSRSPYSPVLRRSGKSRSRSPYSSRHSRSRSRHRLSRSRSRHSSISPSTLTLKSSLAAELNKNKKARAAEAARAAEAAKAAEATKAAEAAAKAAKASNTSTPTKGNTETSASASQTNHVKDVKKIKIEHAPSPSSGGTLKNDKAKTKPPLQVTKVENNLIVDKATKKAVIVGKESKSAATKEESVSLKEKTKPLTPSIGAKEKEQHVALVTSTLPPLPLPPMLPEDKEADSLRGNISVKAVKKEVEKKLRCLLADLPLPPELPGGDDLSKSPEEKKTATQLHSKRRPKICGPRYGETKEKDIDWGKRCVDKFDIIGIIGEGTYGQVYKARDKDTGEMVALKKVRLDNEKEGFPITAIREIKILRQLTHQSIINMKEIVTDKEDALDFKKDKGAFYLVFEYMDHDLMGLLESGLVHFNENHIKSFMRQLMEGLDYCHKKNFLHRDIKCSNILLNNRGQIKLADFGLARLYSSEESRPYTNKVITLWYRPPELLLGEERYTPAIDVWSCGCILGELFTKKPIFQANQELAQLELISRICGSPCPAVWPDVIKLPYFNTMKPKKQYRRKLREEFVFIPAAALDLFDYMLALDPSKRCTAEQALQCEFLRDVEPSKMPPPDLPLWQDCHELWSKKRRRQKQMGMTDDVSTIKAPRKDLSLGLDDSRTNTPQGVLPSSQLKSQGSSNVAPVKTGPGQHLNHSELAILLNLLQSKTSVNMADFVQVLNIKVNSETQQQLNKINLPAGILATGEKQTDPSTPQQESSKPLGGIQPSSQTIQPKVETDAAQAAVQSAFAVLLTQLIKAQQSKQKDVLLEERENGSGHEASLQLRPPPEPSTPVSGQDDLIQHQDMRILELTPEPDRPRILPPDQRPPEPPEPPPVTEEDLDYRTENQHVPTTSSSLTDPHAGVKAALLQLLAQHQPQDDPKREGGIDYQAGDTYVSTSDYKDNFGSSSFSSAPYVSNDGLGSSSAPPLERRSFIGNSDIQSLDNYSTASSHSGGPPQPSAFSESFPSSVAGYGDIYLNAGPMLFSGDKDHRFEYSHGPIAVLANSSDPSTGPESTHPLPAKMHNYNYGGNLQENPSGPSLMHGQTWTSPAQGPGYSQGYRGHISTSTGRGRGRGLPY
Sequence of CDK13/Cyclin K (O75909 whole entry partner): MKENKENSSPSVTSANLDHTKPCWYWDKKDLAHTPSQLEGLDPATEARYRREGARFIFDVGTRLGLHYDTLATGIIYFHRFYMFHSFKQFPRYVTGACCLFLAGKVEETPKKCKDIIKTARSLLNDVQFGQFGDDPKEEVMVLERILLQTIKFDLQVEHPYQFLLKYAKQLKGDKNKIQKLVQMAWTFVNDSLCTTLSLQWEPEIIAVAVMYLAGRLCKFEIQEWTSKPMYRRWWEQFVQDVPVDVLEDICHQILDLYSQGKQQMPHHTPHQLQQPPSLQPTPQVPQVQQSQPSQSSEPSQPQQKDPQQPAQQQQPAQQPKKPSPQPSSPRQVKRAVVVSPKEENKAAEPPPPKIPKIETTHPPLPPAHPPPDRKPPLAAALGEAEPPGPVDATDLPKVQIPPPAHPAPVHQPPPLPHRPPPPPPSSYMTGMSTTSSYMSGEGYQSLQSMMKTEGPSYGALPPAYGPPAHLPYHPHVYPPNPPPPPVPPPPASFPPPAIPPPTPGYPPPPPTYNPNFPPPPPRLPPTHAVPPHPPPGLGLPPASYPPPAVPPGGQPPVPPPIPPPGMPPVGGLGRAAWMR

| IC50 [1, 6] [nM] | IC50 [1, 7] [nM] | Papp at 20 h, 10 μmol [2] [×10⁻⁶ cm/s] | In vitro clearance CLint (HLM) [3] | RLM Clint [4] | MLM Clint [5] | SMILES |
| --- | --- | --- | --- | --- | --- | --- |
| 20 | 5 to 50 | 1 to 5 | A (Clint < 20 μl/(min · mg of protein)) | A (Clint < 20 μl/(min · mg of protein)) | A (Clint < 20 μl/(min · mg of protein)) | CN1CCCc2c(-c3nc(N[C@H]4CCCNC4)ncc3C(F)(F)F)c[nH]c2C1=O [CDK7_953, 7-methyl-3-(2-{[(3S)-piperidin-3-yl]amino}-5-(trifluoromethyl)py-rimidin-4-yl)-1H,4H,5H,6H,7H, 8H-pyrrolo[2,3-c]azepin-8-one] |
|  |  | < 1 | A (Clint < 20 μl/(min · mg of protein)) |  |  | Cn1cc(N2CCCc3c(-c4nc(N[C@H]5CCCNC5)ncc4C(F)(F)F)c[nH]c3C2=O)cn1 [CDK7_955, 7-(1-methyl-1H-pyrazol-4-yl)-3-(2-{[(3S)-piperidin-3-yl]amino}-5-(trifluoromethyl)py-rimidin-4-yl)-1H,4H,5H,6H,7H, 8H-pyrrolo[2,3-c]azepin-8-one] |
|  |  | < 1 | A (Clint < 20 μl/(min · mg of protein)) |  |  | Cn1cc(-n2ccc3c(-c4nc(N[C@H]5CCCNC5)ncc4C(F)(F)F)c[nH]c3c2=O)cn1 [CDK7_959, 6-(1-methyl-1H-pyrazol-4-yl)-3-(2-{[(3S)-piperidin-3-yl]amino}-5-(trifluoromethyl)py-rimidin-4-yl)-1H,6H,7H-pyrrolo[2,3-c]pyridin-7-one] |
|  |  | 1 to 5 | A (Clint < 20 μl/(min · mg of protein)) |  |  | O=c1c2[nH]cc(-c3nc(N[C@H]4CCCNC4)ncc3C(F)(F)F)c2ccn1Cc1ccccc1 [CDK7_961, 6-benzyl-3-(2-{[(3S)-piperidin-3-yl]amino}-5-(trifluoromethyl)py-rimidin-4-yl)-1H,6H,7H-pyrrolo[2,3-c]pyridin-7-one] |
|  |  | 1 to 5 | A (Clint < 20 μl/(min · mg of protein)) |  |  | Cn1cc(N2CCCc3c(-c4nc(N[C@H]5CCC(C)(C)NC5)ncc4C(F)(F)F)c[nH]c3C2=O)cn1 [CDK7_1122, 3-(2-{[(3S)-6,6-dimethylpiperidin-3-yl]amino}-5-(trifluoromethyl)py-rimidin-4-yl)-7-(1-methyl-1H-pyrazol-4-yl)-1H,4H,5H,6H,7H, 8H-pyrrolo[2,3-c]azepin-8-one] |
| 25 | 5 to 50 | < 1 | A (Clint < 20 μl/(min · mg of protein)) |  |  | Cn1cc(-n2ccc3c(-c4nc(N[C@H]5CCC(C)(C)NC5)ncc4C(F)(F)F)c[nH]c3c2=O)cn1 [CDK7_1123, 3-(2-{[(3S)-6,6-dimethylpiperidin-3-yl]amino}-5-(trifluoromethyl)py-rimidin-4-yl)-6-(1-methyl-1H-pyrazol-4-yl)-1H,6H,7H-pyrrolo[2,3-c]pyridin-7-one] |
|  |  | 1 to 5 | A (Clint < 20 μl/(min · mg of protein)) |  |  | O=C1c2[nH]cc(-c3nc(N[C@H]4CCCNC4)ncc3C(F)(F)F)c2CCCN1c1ccccn1 [CDK7_1176, 3-(2-{[(3S)-piperidin-3-yl]amino}-5-(trifluoromethyl)py-rimidin-4-yl)-7-(pyridin-2-yl)-1H,4H,5H,6H,7H, 8H-pyrrolo[2,3-c]azepin-8-one] |
|  |  | 1 to 5 | A (Clint < 20 μl/(min · mg of protein)) | A (Clint < 20 μl/(min · mg of protein)) |  | O=C1c2[nH]cc(-c3nc(NC4CCCNC4)ncc3C(F)(F)F)c2CCCN1C1CC1 (stereo not shown) [CDK7_1188] |
| 203 | > 200 | 1 to 5 | A (Clint < 20 μl/(min · mg of protein)) | A (Clint < 20 μl/(min · mg of protein)) | A (Clint < 20 μl/(min · mg of protein)) | CC1(C)CC[C@H](Nc2ncc(C(F)(F)F)c(-c3c[nH]c4c3CCCN(C3CC3)C4=O)n2)CN1 [CDK7_1225, 7-cyclopropyl-3-(2-{[(3S)-6,6-dimethylpiperidin-3-yl]amino}-5-(trifluoromethyl)py-rimidin-4-yl)-1H,4H,5H,6H,7H, 8H-pyrrolo[2,3-c]azepin-8-one] |
|  |  | 5 to 10 |  | A (Clint < 20 μl/(min · mg of protein)) |  | CC1(C)CC[C@H](Nc2ncc(C(F)(F)F)c(-c3c[nH]c4c3CCCN(CC3CC3)C4=O)n2)CN1 [CDK7_1227, 7-(cyclopropylmeth-yl)-3-(2-{[(3S)-6,6-dimethylpiperidin-3-yl]amino}-5-(trifluoromethyl)py-rimidin-4-yl)-1H,4H,5H,6H,7H, 8H-pyrrolo[2,3-c]azepin-8-one] |
|  |  | 1 to 5 | A (Clint < 20 μl/(min · mg of protein)) |  |  | CC1CCc2c(-c3nc(N[C@H]4CCCNC4)ncc3C(F)(F)F)c[nH]c2C(=O)N1C (stereo partly drawn) [CDK7_1254, 6,7-dimethyl-3-(2-{[(3S)-piperidin-3-yl]amino}-5-(trifluoromethyl)py-rimidin-4-yl)-1H,4H,5H,6H,7H, 8H-pyrrolo[2,3-c]azepin-8-one] |
|  |  | 1 to 5 |  | A (Clint < 20 μl/(min · mg of protein)) |  | CCN1CCCc2c(-c3nc(N[C@H]4CCC(C)(C)NC4)ncc3C(F)(F)F)c[nH]c2C1=O [CDK7_1259, 3-(2-{[(3S)-6,6-dimethylpiperidin-3-yl]amino}-5-(trifluoromethyl)py-rimidin-4-yl)-7-ethyl-1H,4H,5H,6H,7H, 8H-pyrrolo[2,3-c]azepin-8-one] |

| SMILES | IC50 [1, 6] [nM] | IC50 [1, 7] [nM] | Papp at 20 h, 10 μmol [2] [×10⁻⁶ cm/s] | In vitro clearance CLint (HLM) [3] | RLM Clint [4] | MLM Clint [5] |
| --- | --- | --- | --- | --- | --- | --- |
| O=C1c2[nH]cc(-c3nc(NC4CCCNC4)ncc3C(F)(F)F)c2CCCN1c1nccs1 (stereo not shown) [CDK7_1172] |  |  | 1 to 5 | B (50 μl/(min · mg of protein) > Clint > 20 μl/(min · mg of protein)) |  |  |
| CN1CCCc2c(-c3nc(N[C@H]4CCC(C)(C)NC4)ncc3C(F)(F)F)c[nH]c2C1=O [CDK7_1187, 3-(2-{[(3S)-6,6-dimethylpiperidin-3-yl]amino}-5-(trifluoromethyl)py-rimidin-4-yl)-7-methyl-1H,4H,5H,6H,7H, 8H-pyrrolo[2,3-c]azepin-8-one] | 81 | 50 to 200 | 1 to 5 | B (50 μl/(min · mg of protein) > Clint > 20 μl/(min · mg of protein)) | A (Clint < 20 μl/(min · mg of protein)) | A (Clint < 20 μl/(min · mg of protein)) |
| CC(C)N1CCCc2c(-c3nc(N[C@H]4CCC(C)(C)NC4)ncc3C(F)(F)F)c[nH]c2C1=O [CDK7_1229, 3-(2-{[(3S)-6,6-dimethylpiperidin-3-yl]amino}-5-(trifluoromethyl)py-rimidin-4-yl)-7-(propan-2-yl)-1H,4H,5H,6H,7H, 8H-pyrrolo[2,3-c]azepin-8-one] | 242 | > 200 | 5 to 10 | B (50 μl/(min · mg of protein) > Clint > 20 μl/(min · mg of protein)) | A (Clint < 20 μl/(min · mg of protein)) | A (Clint < 20 μl/(min · mg of protein)) |
